From patent US20130303509A1, “NAMPT INHIBITORS” (AbbVie Inc., priority 2012, published 2013)

Test system: PC3 cells
Experiment: NAMPT Cell Proliferation Assay
Type: cell-based
Settings: Homo sapiens, PC-3, 120 h, 5 days incubation, cell viability by Cell Titer Glo
Protocol: NAMPT Cell Proliferation Assay
PC3 cells were seeded in 96-well black plates (Corning #3904) at 500 cells)Owell in 90 µl of RPMI media containing 10% heat-inactivated FBS and incubated overnight at 37° C. and 5% CO2 to allow cells to attach to wells. The following day, test compounds were serially diluted in neat DMSO to 1000× final concentrations prior to dilution with RPMI media to 10× and 1% DMSO. […] of the 10× compounds were then transferred to wells containing cells to produce a dose response of 10-fold dilutions from […] to 1×10^−[…]. Cells were incubated for 5 days at 37° C. and 5% CO2, then cell viability was measured using Cell Titer Glo reagent (Promega #G7571). Percent inhibition values were calculated and fitted to a sigmoidal dose response curves using Assay Explorer software to determine IC50s.

SMILES | IC50
O=C(Nc1ccc(C2CCN(C(=O)c3ccsc3)CC2)cc1)C1CN(c2cccnc2)C1 [Example 109, 1-(pyridin-3-yl)-N-{4-[1-(thiophen-3-ylcarbonyl)piperidin-4-yl]phenyl}azetidine-3-carboxamide] | 0.66 nM
O=C(Nc1ccc(S(=O)(=O)C2CCN(C(=O)C3CCCC3)CC2)cc1)C1CN(c2cccnn2)C1 [Example 599, N-(4-{[1-(cyclopentylcarbonyl)piperidin-4-yl]sulfonyl}phenyl)-1-(pyridazin-3-yl)azetidine-3-carboxamide] | 79.7 nM
Cc1ccc(C(=O)N2CC[C@@H](Oc3ccc(NC(=O)C4CN(c5cccnn5)C4)cc3)C2)s1 [Example 500, N-[4-({(3R)-1-[(5-methylthiophen-2-yl)carbonyl]pyrrolidin-3-yl}oxy)phenyl]-1-(pyridazin-3-yl)azetidine-3-carboxamide] | 1.02 nM
O=C(Nc1ccc(O[C@@H]2CCN(C(=O)c3cccc(C(F)(F)F)c3)C2)cc1)C1CN(c2ccnnc2)C1 [Example 453, 1-(pyridazin-4-yl)-N-[4-({(3R)-1-[3-(trifluoromethyl)benzoyl]pyrrolidin-3-yl}oxy)phenyl]azetidine-3-carboxamide] | 105 nM
CCC(C)C(=O)N1CCC(c2ccc(NC(=O)[C@H]3CCN(c4cccnn4)C3)cc2)CC1 (stereo partly drawn) [Example 706, (3S)-N-{4-[1-(2-methylbutanoyl)piperidin-4-yl]phenyl}-1-(pyridazin-3-yl)pyrrolidine-3-carboxamide] | 7.7 nM
O=C(Nc1ccc(C2CCN(C(=O)Cc3cccc(C(F)(F)F)c3)CC2)cc1)C1CN(c2ccnnc2)C1 [Example 550, 1-(pyridazin-4-yl)-N-[4-(1-{[3-(trifluoromethyl)phenyl]acetyl}piperidin-4-yl)phenyl]azetidine-3-carboxamide] | 8.21 nM
CC(C)(O)C(=O)N1CCC(c2ccc(NC(=O)C3CN(c4cccnc4)C3)cc2)CC1 [Example 20, N-{4-[1-(2-hydroxy-2-methylpropanoyl)piperidin-4-yl]phenyl}-1-(pyridin-3-yl)azetidine-3-carboxamide] | 0.28 nM
CC(C)C(=O)N1CCC(c2ccc(C(=O)N[C@H]3CCN(c4cccnn4)C3)cc2)CC1 [Example 752, 4-[1-(2-methylpropanoyl)piperidin-4-yl]-N-[(3S)-1-(pyridazin-3-yl)pyrrolidin-3-yl]benzamide] | 2450 nM
CC(=O)N[C@@H](CC(C)C)C(=O)N1CCC(Oc2ccc(NC(=O)C3CN(c4cccnc4)C3)cc2)CC1 [Example 47, N-(4-{[1-(N-acetyl-L-leucyl)piperidin-4-yl]oxy}phenyl)-1-(pyridin-3-yl)azetidine-3-carboxamide] | 3.35 nM
Cc1ncccc1N1CC(C(=O)Nc2ccc(C3CCN(C(=O)CC(F)(F)F)CC3)cc2)C1 [Example 182, 1-(2-methylpyridin-3-yl)-N-{4-[1-(3,3,3-trifluoropropanoyl)piperidin-4-yl]phenyl}azetidine-3-carboxamide] | 87.9 nM
O=C(Nc1ccc(O[C@@H]2CCN(C(=O)CC3CC3)C2)cc1)C1CN(c2ccnnc2)C1 [Example 444, N-(4-{[(3R)-1-(cyclopropylacetyl)pyrrolidin-3-yl]oxy}phenyl)-1-(pyridazin-4-yl)azetidine-3-carboxamide] | 78 nM
O=C(Nc1ccc(C2CCN(C(=O)c3ccc(C(F)(F)F)cc3)CC2)cc1)C1CN(c2ccnnc2)C1 [Example 553, 1-(pyridazin-4-yl)-N-(4-{1-[4-(trifluoromethyl)benzoyl]piperidin-4-yl}phenyl)azetidine-3-carboxamide] | 44.1 nM
O=C(NC1CN(c2cccnn2)C1)c1ccc(C2CCN(C(=O)C3CC3)CC2)s1 [Example 856, 5-[1-(cyclopropylcarbonyl)piperidin-4-yl]-N-[1-(pyridazin-3-yl)azetidin-3-yl]thiophene-2-carboxamide] | 729 nM
Cc1ncccc1N1CC(C(=O)Nc2ccc(C3CCN(C(=O)c4ccoc4)CC3)cc2)C1 [Example 165, N-{4-[1-(furan-3-ylcarbonyl)piperidin-4-yl]phenyl}-1-(2-methylpyridin-3-yl)azetidine-3-carboxamide] | 68.2 nM
Cc1ncccc1N1CC(C(=O)Nc2ccc(C3CCN(C(=O)CC4C[C@@H]5CC[C@H]4C5)CC3)cc2)C1 (stereo partly drawn) [Example 161, N-(4-{1-[(1S,4R)-bicyclo[2.2.1]hept-2-ylacetyl]piperidin-4-yl}phenyl)-1-(2-methylpyridin-3-yl)azetidine-3-carboxamide] | 213 nM
O=C(Nc1ccc(C2CCN(C(=O)c3cccc(Cl)c3)CC2)cc1)C1CN(c2ccnnc2)C1 [Example 544, N-{4-[1-(3-chlorobenzoyl)piperidin-4-yl]phenyl}-1-(pyridazin-4-yl)azetidine-3-carboxamide] | 7.17 nM
O=C(Nc1ccc(C2CC3CCC(C2)N3C(=O)c2ccccc2F)cc1)C1CN(c2cccnn2)C1 (stereo not drawn) [Example 843, N-{4-[8-(2-fluorobenzoyl)-8-azabicyclo[3.2.1]oct-3-yl]phenyl}-1-(pyridazin-3-yl)azetidine-3-carboxamide] | 0.61 nM
CC(C)(C)Cc1nc(-c2ccc(NC(=O)C3CN(c4cccnn4)C3)cc2)no1 [Example 806, N-{4-[5-(2,2-dimethylpropyl)-1,2,4-oxadiazol-3-yl]phenyl}-1-(pyridazin-3-yl)azetidine-3-carboxamide] | 3.13 nM

Now from value to compound:

IC50 | SMILES
7.84 nM | CC(C)(C)c1cc(-c2ccc(NC(=O)C3CN(c4cccnn4)C3)cc2)n(CC2CCOCC2)n1 [Example 867, N-{4-[3-tert-butyl-1-(tetrahydro-2H-pyran-4-ylmethyl)-1H-pyrazol-5-yl]phenyl}-1-(pyridazin-3-yl)azetidine-3-carboxamide]
5010 nM | CC(C)Cn1cc(-c2cc(C(=O)N[C@H]3CCN(c4ccc(Cl)nn4)C3)cs2)cn1 [Example 629, N-[(3S)-1-(6-chloropyridazin-3-yl)pyrrolidin-3-yl]-5-[1-(2-methylpropyl)-1H-pyrazol-4-yl]thiophene-3-carboxamide]
29.9 nM | O=C(NCC(=O)N1CCC(c2ccc(NC(=O)C3CN(c4cccnn4)C3)cc2)CC1)c1ccco1 [Example 408, N-(4-{1-[N-(furan-2-ylcarbonyl)glycyl]piperidin-4-yl}phenyl)-1-(pyridazin-3-yl)azetidine-3-carboxamide]
68.5 nM | O=C(Nc1ccc(O[C@@H]2CCN(C(=O)c3cc(F)cc(F)c3)C2)cc1)C1CN(c2ccnnc2)C1 [Example 474, N-(4-{[(3R)-1-(3,5-difluorobenzoyl)pyrrolidin-3-yl]oxy}phenyl)-1-(pyridazin-4-yl)azetidine-3-carboxamide]
24.2 nM | O=C(Nc1ccc(C2CCN(C(=O)Cc3ccc(C(F)(F)F)cc3)CC2)cc1)C1CN(c2ccnnc2)C1 [Example 563, 1-(pyridazin-4-yl)-N-[4-(1-{[4-(trifluoromethyl)phenyl]acetyl}piperidin-4-yl)phenyl]azetidine-3-carboxamide]
854 nM | N#Cc1ccncc1N1CC(C(=O)Nc2ccc(C3CCN(C(=O)c4ccccc4)CC3)cc2)C1 [Example 738, N-[4-(1-benzoylpiperidin-4-yl)phenyl]-1-(4-cyanopyridin-3-yl)azetidine-3-carboxamide]
6.72 nM | O=C(Nc1ccc(C2CCN(C(=O)COCc3ccccc3)CC2)cc1)C1CN(c2cccnn2)C1 [Example 409, N-(4-{1-[(benzyloxy)acetyl]piperidin-4-yl}phenyl)-1-(pyridazin-3-yl)azetidine-3-carboxamide]
19.7 nM | O=C(Nc1ccc(O[C@@H]2CCN(C(=O)c3cc(F)cc(F)c3)C2)cc1)[C@H]1CCN(c2cccnn2)C1 [Example 778, (3S)-N-(4-{[(3R)-1-(3,5-difluorobenzoyl)pyrrolidin-3-yl]oxy}phenyl)-1-(pyridazin-3-yl)pyrrolidine-3-carboxamide]
1.59 nM | CCC(CC)C(=O)N1CCC(c2ccc(NC(=O)C3CN(c4cccnn4)C3)cc2)CC1 [Example 328, N-{4-[1-(2-ethylbutanoyl)piperidin-4-yl]phenyl}-1-(pyridazin-3-yl)azetidine-3-carboxamide]
138 nM | CC(C)n1cc(-c2ccc(NC(=O)[C@H]3CCN(c4cccnn4)C3)cc2)cn1 [Example 770, (3S)-N-{4-[1-(propan-2-yl)-1H-pyrazol-4-yl]phenyl}-1-(pyridazin-3-yl)pyrrolidine-3-carboxamide]
74.1 nM | CC(C)(C)c1ccc(C(=O)N2CCC(S(=O)(=O)c3ccc(NC(=O)C4CN(c5cccnn5)C4)cc3)CC2)cc1 [Example 565, N-(4-{[1-(4-tert-butylbenzoyl)piperidin-4-yl]sulfonyl}phenyl)-1-(pyridazin-3-yl)azetidine-3-carboxamide]
36.9 nM | O=C(Nc1ccc(O[C@@H]2CCN(C(=O)Cc3ccccc3F)C2)cc1)C1CN(c2ccnnc2)C1 [Example 459, N-[4-({(3R)-1-[(2-fluorophenyl)acetyl]pyrrolidin-3-yl}oxy)phenyl]-1-(pyridazin-4-yl)azetidine-3-carboxamide]
2.83 nM | CCCCCCC(=O)N1CCC(c2ccc(NC(=O)C3CN(c4cccnn4)C3)cc2)CC1 [Example 329, N-[4-(1-heptanoylpiperidin-4-yl)phenyl]-1-(pyridazin-3-yl)azetidine-3-carboxamide]
62.7 nM | CC(=O)N1CCC(C(=O)N2CCC(c3ccc(NC(=O)C4CN(c5cccnn5)C4)cc3)CC2)CC1 [Example 383, N-(4-{1-[(1-acetylpiperidin-4-yl)carbonyl]piperidin-4-yl}phenyl)-1-(pyridazin-3-yl)azetidine-3-carboxamide]
116 nM | Cc1ncccc1N1CC(C(=O)Nc2ccc(C3CCN(C(=O)c4cccc(F)c4)CC3)cc2)C1 [Example 152, N-{4-[1-(3-fluorobenzoyl)piperidin-4-yl]phenyl}-1-(2-methylpyridin-3-yl)azetidine-3-carboxamide]
